The results in this text go back to paper PMC8443647, “Hybrid derivative of cathelicidin and human beta defensin-2 against Gram-positive bacteria: A novel approach for the treatment of bacterial keratitis” (Scientific Reports, 2021).

The term CC50 denotes the concentration giving 50% cytotoxicity. Lower therefore signals greater toxicity to the cells.

The test system of one series is MRSA-OS. Briefly: microbe, parasite or virus in culture. To be noted: -OS, 24 h. The format is cell-based, Staphylococcus aureus. In outline:
(§1)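 MIC was determined by CLSI broth microdilution in cation-adjusted Mueller-Hinton broth. Peptides or antibiotics were tested in 1:2 serial dilutions against a final inoculum of 5 × 10^5 CFU/ml, prepared by direct colony suspension from overnight TSA cultures grown at 37 °C.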

The test system of series [1] is S. epidermidis ATCC 12228. The format is cell-based, Staphylococcus epidermidis. To be noted: ATCC 12228, 24 h. The source says:
(§2) A range of Gram-positive and Gram-negative laboratory- and clinical-strain bacteria were used for the experiments. These included laboratory-strain methicillin-sensitive S. aureus (MSSA; including SH1000 and ATCC SA29213), laboratory-strain MRSA (ATCC MRSA43300), clinical-strain MRSA (MRSA-OS; an IK isolate), laboratory-strain methicillin-sensitive Staphylococcus epidermidis (MSSE; ATCC SE12228), laboratory invasive-strain P. aeruginosa (PAO1-L), and clinical cytotoxic-strain P. aeruginosa (PA-OS; an IK isolate).
In vitro antimicrobial efficacy of the antibiotics and designed HDPs was determined using an established MIC assay with broth microdilution method approved by the Clinical and Laboratory Standards Institute (CLSI)[64]. Briefly, the microorganisms were cultured on Tryptone Soya Agar (TSA) and incubated overnight for 18–21 h at 37 °C. Bacterial inoculums were subsequently prepared using the direct colony suspension method. Three to five bacterial colonies were obtained from the agar plate and inoculated into an Eppendorf tube containing 1 ml of cation-adjusted Muller-Hinton broth (caMHB), consisting of 20–25 mg/L calcium ions (Ca^2+) and 10–12.5 mg/L magnesium ions (Mg^2+). […]

The next series concerns P. aeruginosa PA-OS. Kind of series: microbe, parasite or virus in culture. The format is cell-based. Particulars: PA-OS, 24 h. In outline:
as §1

The nature of a further series: in vitro. Type of series: cell-based, human. Particulars: human. The method, then:
Cell viability and cytotoxicity of antibiotics and peptides were determined against human corneal epithelial cells (HCE-2, CRL-11135, ATCC, Manassas, Virginia, USA) using cell-counting-kit-8 (CCK-8) assay (Sigma Aldrich, Merck Life Science UK Limited, Dorset, UK) and lactate dehydrogenase (LDH) assay (ThermoFisher Scientific, UK), respectively, as per manufacturer’s guidelines. HCE-2 cells were cultured and seeded into a 96-well plate at a density of 7.5 × 10^3 cells/well and allowed to attach overnight and grew to 80–90% confluency in keratinocyte serum free medium (KSFM) supplemented with human recombinant epidermal growth factor, bovine pituitary extract, hydrocortisone, and insulin. Once the confluency reached 80–90%, the cells were incubated with treatment for 3 h before OD450 measurement was taken using BMG Clariostar microplate reader (BMG Labtech Ltd., Aylesbury, UK). Appropriate controls were used, including 0.1% Triton X-100 as positive control and KSFM as negative control. Cell viability was calculated using the following formula: [([…]) × 100; I = intensity] and cytotoxicity was calculated using the following formula: [((Itreatment – INC)/(IPC – INC)) × 100].

The next series is described as follows: Hemolytic assay. The format is cell-based. Particulars: human, Hmax (%): percentage of hemolysis at 200 µg/ml. On the procedure: Ethical approval was obtained from the Local Research Ethics Committee of University of Nottingham prior to the experiment (Ref: 176-1812). The experiment was conducted in accordance with the relevant guidelines and regulations. Hemolytic assay was performed according to the previously established protocol. Briefly, 5 ml of fresh human blood was collected from healthy participants with written informed consent, in an EDTA tube and centrifuged for 10 min at 1300g at 10 °C for separation of plasma. The remaining erythrocytes were rinsed and centrifuged further three times in Ca^2+/Mg^2+ free Dulbecco’s phosphate-buffered saline (DPBS). Subsequently, erythrocytes were diluted to 8% v/v in DPBS and incubated with 100 μl of treatment, positive control (1% Triton X-100) and negative control (DPBS), all in 1:1 ratio, for 1 h (final erythrocytes concentration = 4% v/v). After 1 h of incubation, the plate was centrifuged at 500×g for 5 min and 100 μl of supernatant of each well was transferred into a 96-well plate for measurement at OD540. Hemolysis (%) was calculated as [(Itreatment – INC)/(IPC – INC)] × 100.

The test system of a further series is corneal epithelial wound. To be noted: mouse, in vivo. On the procedure:
The in vivo studies were conducted in two stages, namely the corneal wound healing study (for safety) and BK study (for efficacy), based on previously established protocols[54],[65]. […] The mice were maintained and treated in compliance with the Guide for the Care and Use of Laboratory Animals (National Research Council) and the ARVO statement for the Use of Animals in Ophthalmic and Vision Research. […]
In vivo safety of CaD23 (in 0.03%, 0.05% or 0.1%), and PBS (negative control) was first determined in a mouse corneal epithelial wound healing model. In the absence of in vivo pilot data of our designed HDPs, the sample size was calculated based on a previous study. […]
All mice were randomly allocated to each of the four treatment groups (n = 4 mice/group). […] Corneal epithelial defect was assessed using a cobalt-blue filter-equipped slit-lamp biomicroscopy and photography with staining with topical sodium fluorescein 1% at baseline (immediately post-debridement) and daily up to 3 days post-treatment. Fluorescein-stained images of the corneal wound defect were analyzed using ImageJ software (https://imagej.nih.gov/ij/)[68]. The main outcome measure was the wound size at the end of day 1, 2 and 3 [expressed as % of the original wound size in mean and standard deviation (SD)]. […]

Another series has as its system MRSA ATCC 43300. Type of series: cell-based, Staphylococcus aureus. To be noted: ATCC 43300, 24 h.
Excerpt: as §2
(§3) In vitro antimicrobial efficacy of the antibiotics and designed HDPs was determined using an established MIC assay with broth microdilution method approved by the Clinical and Laboratory Standards Institute (CLSI)[64]. Briefly, the microorganisms were cultured on Tryptone Soya Agar (TSA) and incubated overnight for 18–21 h at 37 °C. Bacterial inoculums were subsequently prepared using the direct colony suspension method. Three to five bacterial colonies were obtained from the agar plate and inoculated into an Eppendorf tube containing 1 ml of cation-adjusted Muller-Hinton broth (caMHB), consisting of 20–25 mg/L calcium ions (Ca^2+) and 10–12.5 mg/L magnesium ions (Mg^2+). The bacterial suspension was adjusted to achieve a turbidity equivalent to 0.1 OD600 or 0.5 MacFarland, containing ~ 1.5 × 10^8 colony-forming unit (CFU)/ml, which was then further diluted in 1:150 in caMHB to reach a final bacterial concentration of ~ 1 × 10^6 colony forming units (CFU)/ml. Each treatment (peptide or antibiotic) was prepared in 1:2 serial dilution in 96-well polypropylene microplates (with a final treatment volume of 50 μl per well), followed by the addition of 50 μl of 1 × 10^6 CFU/ml bacteria into each well (with a final bacterial concentration of 5 × 10^5 CFU/ml).

For a further series, the system named is MRSA. Type of series: cell-based, Staphylococcus aureus.
Excerpt: as §2, §3

A further series relates to MSSA. Type of series: cell-based, Staphylococcus aureus.
Excerpt: as §2, §3

A further series concerns S. aureus ATCC 29213. Type of series: cell-based, Staphylococcus aureus. To be noted: ATCC 29213, 24 h.
Excerpt: as §2, §3

Converted amounts (≈) assume the structure as drawn. Peptide text beside a SMILES is read from it.

For the compound `CC[C@H](C)[C@H](NC(=O)[C@H](CCCNC(=N)N)NC(=O)[C@H](CCC(N)=O)NC(=O)[C@@H](NC(=O)[C@@H](NC(=O)[C@H](CCCNC(=N)N)NC(=O)[C@@H](N)CCCCN)[C@@H](C)CC)C(C)C)C(=O)N[C@@H](CCCCN)C(=O)N[C@@H](CC(=O)O)C(=O)N[C@@H](Cc1c[nH]c2ccccc12)C(=O)N[C@@H](CC(C)C)C(=O)N[C@@H](CCCNC(=N)N)C(=O)N[C@@H](CCCCN)C(=O)N[C@@H](CC(C)C)C(=O)N[C@@H](CS)C(=O)N[C@@H](CCCCN)C(=O)N[C@@H](CCCCN)C(=O)N[C@@H](Cc1c[nH]c2ccccc12)C(=O)O` [CaD23, KRIVQRIKDW LRKLCKKW] (H-KRIVQRIKDWLRKLCKKW-OH; N-terminus and C-terminus assumed), the MIC with MRSA-OS was 100 µg/mL (≈ 41.7 µM); in series [1], 5.2 µM (≈ 12.5 µg/mL); against P. aeruginosa PA-OS, 50 µg/mL (≈ 20.9 µM); against MRSA ATCC 43300, 100 µg/mL (≈ 41.7 µM); against MRSA, 25 µg/mL (≈ 10.4 µM); against MSSA, 12.5 to 25.0 µg/mL. In addition, in the series with S. aureus ATCC 29213, the MIC was 50 µg/mL (≈ 20.9 µM). The 50% cytotoxic concentration (CC50) at 3 h in “in vitro” was greater than 200 µg/mL. For the same compound, the hemolysis at 1 h, 200 µg/ml in “Hemolytic assay” was less than 10%. Further, the “Mean wound size (% of original wound size)” value with corneal epithelial wound turned out to be 28.5 ± 19.9%.
